Reference: patent US11034735B2, “Hybrid peptide, set of hybrid peptides, composition, uses of the hybrid peptide, method for inducing an immune response and kits” (priority 2017, dated 2021)

Assays:
calf serum = experiment: Dot-ELISA, synthetic peptides with serum of calf immunized with peptide pool; type: in vivo; design: key to Peptide Reactivity, Calf serum inoculated with pool: — = Did not react; X = Reacted; conditions: Dot-ELISA; peptide as antigen; calf inoculated with pool SEQ ID NO: 20, 21, 23, 25, 26
From the text: The immunogenicity of the synthetic peptides was verified by immunizing a previously tested calf with negative results for Anaplasma marginale, Babesia bovis and Babesia bigemina by serology and PCR. For inoculations, a peptide pool (SEQ ID NO: 20, SEQ ID NO: 21, SEQ ID NO: 23, SEQ ID NO: 25 and SEQ ID NO: 26) was emulsified in Freund's complete adjuvant (Sigma) and, inoculated intramuscularly in the quadriceps. Two further immunizations, on the 14th and 28th day after inoculation, were performed using incomplete Freund's adjuvant (Sigma). Each inoculation was done using 100 μg/mL of each peptide. Blood samples were collected by jugular puncture on the 10th day after the last immunization and the sera obtained were stored at −20° C. until evaluated by Dot-ELISA and Western-blotting assays.
(§1) Synthetic peptides were used as antigen in the Dot-ELISA technique to verify their ability to react with specific antibodies present in the serum of BALB/c mice, as well as in calf serum, all immunized. The technique was performed as described by Machado et al. (1994), with minor modifications. Briefly, small nitrocellulose discs were cut using a paper punch and each disc arranged in a flat bottom 24-well culture plate well. 4 μg/mL of each synthetic peptide alone, as well as the peptide pool, were deposited on each disc. The discs were dried at room temperature and then blocked for 12 hours at room temperature with […] TBS buffer (0.1 M Tris, 0.1 M NaCl and 0.5% Tween 20; TBS-Tween 20), plus 5% skim milk powder. Test sera were diluted 1:25 (mice and calf) in TBS-Tween 20 containing 5% skim milk powder and incubated for 120 minutes at room temperature and under constant stirring. Then the discs were subjected to two washes with TBS-Tween 20 plus 5% skim milk powder and one wash with TBS-Tween 20 (5 min interval between each wash). To each mouse serum disc was added the alkaline phosphate-coupled anti-mouse conjugate (anti-mouse IgG goat IgG, Sigma A-3562) diluted 1:30,000 in TBS-Tween 20 plus 5% of skim milk powder. To calf serum-containing discs, it was added alkaline phosphate-coupled anti-bovine conjugate (anti-cattle IgG rabbit IgG, Sigma A-0705) diluted 1:30,000 in TBS-Tween 20, plus 5% skim milk powder. After one hour incubation with the appropriate conjugates, washes were followed as in the previous step.

serum of BALB/c mice = experiment: Dot-ELISA, synthetic peptides with serum of immunized BALB/c mice; type: in vivo; design: key to Peptide Reactivity, Mice serum inoculated with isolated peptides 1 / Peptide Reactivity, Mice serum inoculated with isolated peptides 2 / Peptide Reactivity, Mice serum inoculated with isolated peptides 3 / Peptide Reactivity, Mice serum inoculated with pool / Peptide Reactivity, Mice serum inoculated with Saline (Negative Control) / Reaction with pool of peptides, Mouse 1 serum / Reaction with pool of peptides, Mouse 2 serum / Reaction with pool of peptides, Mouse 3 serum: — = Did not react; X = Reacted; conditions: for Peptide Reactivity, Mice serum inoculated with pool / Peptide Reactivity, Mice serum inoculated with isolated peptides 1 / Peptide Reactivity, Mice serum inoculated with isolated peptides 2 / Peptide Reactivity, Mice serum inoculated with isolated peptides 3 / Peptide Reactivity, Mice serum inoculated with Saline (Negative Control) / Reaction with pool of peptides, Mouse 1 serum / Reaction with pool of peptides, Mouse 2 serum / Reaction with pool of peptides, Mouse 3 serum: Dot-ELISA; for Peptide Reactivity, Mice serum inoculated with pool: mice inoculated with pool of all 8 hybrid peptides; for Peptide Reactivity, Mice serum inoculated with isolated peptides 1: serum of mouse 1 inoculated with the same isolated peptide; for Peptide Reactivity, Mice serum inoculated with isolated peptides 1 / Peptide Reactivity, Mice serum inoculated with isolated peptides 2 / Peptide Reactivity, Mice serum inoculated with isolated peptides 3: serum 1:25; for Peptide Reactivity, Mice serum inoculated with isolated peptides 2: serum of mouse 2 inoculated with the same isolated peptide; for Peptide Reactivity, Mice serum inoculated with isolated peptides 3: serum of mouse 3 inoculated with the same isolated peptide; for Peptide Reactivity, Mice serum inoculated with Saline (Negative Control): serum of saline-inoculated mice; for Reaction with pool of peptides, Mouse 1 serum / Reaction with pool of peptides, Mouse 2 serum / Reaction with pool of peptides, Mouse 3 serum: pool of peptides as antigen; for Reaction with pool of peptides, Mouse 1 serum: serum of mouse 1 inoculated with the labelled peptide; for Reaction with pool of peptides, Mouse 2 serum: serum of mouse 2 inoculated with the labelled peptide; for Reaction with pool of peptides, Mouse 3 serum: serum of mouse 3 inoculated with the labelled peptide
Description: (§2) The immunogenicity of each peptide was checked immunizing BALB/c mice, approximately six weeks old, with […] of protein (Machado et al., 1994). The mice were divided into groups of three animals each. The groups were: P28, P41, P42, P44, P50, P51, P53, P54, Pool (mice inoculated with a pool of peptides, in the case with all 8 hybrid peptides) and negative control group. For inoculations, the peptides were emulsified in Freund's complete adjuvant (Sigma) and inoculated intramuscularly in the quadriceps. Two further immunizations, on the 14th and 28th day after inoculation, were performed using incomplete Freund's adjuvant (Sigma). Each inoculation was carried out using 10 μg/mL of each peptide. Negative control mice were inoculated with sterile saline in place of the peptides and also emulsified in adjuvant. Blood samples were collected by intracardiac puncture on the 10th day after the last immunization and the sera obtained were stored at −20° C. until evaluated by Dot-ELISA and Western-blotting assays.
as §1

A. marginale antigen = experiment: Indirect immunofluorescence reaction, sera of inoculated mice; type: in vivo; conditions: serum 1:25
Description: as §2
The prepared A. marginale antigen-containing blood smear slides were removed from the freezer and thawed at room temperature. […] After drying the slides, they were coverslipped using a buffered glycerine at a 9:1 ratio of glycerine/0.5 M carbonate-bicarbonate buffer pH 9.6 and then observed under a fluorescence microscope (Olympus, BX-FLA).

mouse serum = experiment: Western blotting, synthetic peptides with serum of inoculated mice; conditions: in vivo
Description: as §2
Samples of synthetic peptides were analyzed by Western blotting. To this end, initially, the samples were submitted to polyacrylamide gel electrophoresis under denaturing conditions, according to the technique recommended by Laemmli (1970). Based on the sample volume 2× concentrated sample buffer (250 mM Tris-HCl pH 6.8, 40% glycerol, 8% SDS, 20% β-mercaptoethanol and 0.008% bromophenol blue) was added. The samples were homogenized, incubated for 5 minutes at 100° C. and applied to the gel. The separation gel was prepared at a concentration of 12% polyacrylamide in buffer (1.875 M Tris, pH 8.8 and 1% SDS) and 5% polyacrylamide for buffer packaging gel (1.875 M Tris, pH 6.8 and 0.5% SDS). Electrophoresis was performed in Tris-Glycine Running Buffer (50 mM Tris, pH 8.6, 1.92 M Glycine and 1% SDS) at 100 V for up to 3 hours and 30 minutes at 0° C. in the Mini-Protean II system (Bio-Rad).
Synthetic peptides processed on the polyacrylamide gel (SDS-PAGE) were transferred to the nitrocellulose membrane for analysis by Wester blot (TOWBIN et al., 1979). The nitrocellulose membrane (Merck) was previously incubated in ice cold transfer buffer (0.58% Tris Base pH 8.3, 20% methanol and 0.29% glycine). For this, the membrane was placed in the “Mini Trans-Blot” (Bio-Rad) electrotransfer system containing the same buffer and the transfer was performed at 100 V for 90 minutes. The membrane was incubated in TBS-Tween (10 mM Tris-HCl pH 7.5; 150 mM NaCl, 0.05% Tween-20) plus 5% skim milk powder for 12 hours at 4° C. under low agitation, for saturation of non-specific binding sites. The membrane was then incubated with each serum from each mouse alone or incubated with calf serum for 2 hours at room temperature under slow stirring. […]

Sequence: GASTDDAAAAAKIVAMAYGRGGGGTIVPVKTFDDGALTYFQFYDNNKVIP (Synthetic hybrid peptide) [P50]
- Peptide Reactivity, Calf serum inoculated with pool (calf serum): —
- Peptide Reactivity, Mice serum inoculated with pool (serum of BALB/c mice; peptide as antigen): —
- Peptide Reactivity, Mice serum inoculated with isolated peptides 1 (serum of BALB/c mice; peptide as antigen): —
- Peptide Reactivity, Mice serum inoculated with isolated peptides 2 (serum of BALB/c mice; peptide as antigen): —
- Peptide Reactivity, Mice serum inoculated with isolated peptides 3 (serum of BALB/c mice; peptide as antigen): —
- Peptide Reactivity, Mice serum inoculated with Saline (Negative Control) (serum of BALB/c mice; peptide as antigen): —
- Reaction with pool of peptides, Mouse 1 serum (serum of BALB/c mice): —
- Reaction with pool of peptides, Mouse 2 serum (serum of BALB/c mice): —
- Reaction with pool of peptides, Mouse 3 serum (serum of BALB/c mice): —
- Indirect immunofluorescence reaction for A. marginale, inoculated mice (A. marginale antigen): positive

Sequence: LAESTEGNLEEVWILGKGGGGDELSKKVCGKGTTSGSTNQCG (Synthetic hybrid peptide) [P42]
- Peptide Reactivity, Calf serum inoculated with pool (calf serum): —
- Peptide Reactivity, Mice serum inoculated with pool (serum of BALB/c mice; peptide as antigen): —
- Peptide Reactivity, Mice serum inoculated with isolated peptides 1 (serum of BALB/c mice; peptide as antigen): X
- Peptide Reactivity, Mice serum inoculated with isolated peptides 2 (serum of BALB/c mice; peptide as antigen): —
- Peptide Reactivity, Mice serum inoculated with isolated peptides 3 (serum of BALB/c mice; peptide as antigen): —
- Peptide Reactivity, Mice serum inoculated with Saline (Negative Control) (serum of BALB/c mice; peptide as antigen): —
- Reaction with pool of peptides, Mouse 1 serum (serum of BALB/c mice): —
- Reaction with pool of peptides, Mouse 2 serum (serum of BALB/c mice): —
- Reaction with pool of peptides, Mouse 3 serum (serum of BALB/c mice): —
- Dot-ELISA reaction of sera from mice inoculated with hybrid peptides alone (serum of BALB/c mice; peptide as antigen): reacted
- Western blotting reaction of serum of mice inoculated with synthetic peptide (mouse serum): reacted
- Indirect immunofluorescence reaction for A. marginale, inoculated mice (A. marginale antigen): positive
